Drawing on ChEMBL document CHEMBL5053549, “Discovery of Potent and Novel Dual PARP/BRD4 Inhibitors for Efficient Treatment of Pancreatic Cancer” (J Med Chem, 2021), this text covers Activity, inhibition and IC50 for two molecules.

The source made the active and inactive calls. The rule behind the calls is not given here.

Data set [1] deals with Mus musculus. Description: In vivo inhibition of PARP1 expression in human […] cells xenografted in BALB/c mouse at 45 mg/kg, ip administered for 28 consecutive days by Q-PCR analysis. Format: functional, organism-based. Particulars: time 28.0 day. (Xenograft models place foreign cells or tissue in a host animal.)
Data set [2] deals with SW1990. Description: Effect on cell cycle progression in human SW1990 cells assessed as reduction in CCND1 expression at 1 to 2 uM after 4 days by Q-PCR analysis. Format: functional, cell-based. Particulars: dose 1-2 µM, time 4.0 day.
Data set [3] deals with Mus musculus. Description: Inhibition of homologous recombinant repair in human SW1990 cells xenografted in BALB/c mouse assessed as reduction in BRCA1 expression at 45 mg/kg, ip after 4 days by immunohistochemical analysis. Type of data set: functional, organism-based. Particulars: time 4.0 day.
Data set [4] has as its system SW1990. Nature of the data set: Induction of autophagy in human SW1990 cells assessed as increase in pULK1 expression at 1 to 2 uM incubated for 4 days by immunofluorescence assay. Type of data set: functional, cell-based. Particulars: dose 1-2 µM, time 4.0 day.
In data set [5] the test system is Mus musculus. Description: In vivo inhibition of PARP1 expression in human […] cells xenografted in BALB/c mouse at 45 mg/kg, ip administered for 28 consecutive days by immunohistochemical analysis. Type of data set: functional, organism-based. Particulars: time 28.0 day.
For data set [6], the system named is Mus musculus. Description: Toxicity in BALB/c mouse xenografted with human SW1990 cells assessed as effect on body weight at 45 mg/kg, ip administered for 28 consecutive days. Type of data set: organism-based. The following applies: in vivo, 672 h, time 28 day.
For data set [7], the system named is SW1990. Description: Induction of autophagy in human SW1990 cells xenografted in BALB/c mouse assessed as increase in ATG5 expression at 45 mg/kg, ip after 4 days by Western blot analysis. Type of data set: functional, organism-based. Particulars: time 4.0 day.
Data set [8] concerns SW1990. Description: Inhibition of homologous recombinant repair in human SW1990 cells assessed as reduction in c-Myc expression at 1 to 2 uM after 4 days by Q-PCR analysis. Type of data set: functional, cell-based. Particulars: dose 1-2 µM, time 4.0 day.
Data set [9] relates to SW1990. Description: Induction of autophagy in human SW1990 cells xenografted in BALB/c mouse assessed as increase in beclin1 expression at 45 mg/kg, ip after 4 days by Q-PCR analysis. Type of data set: functional, organism-based. Particulars: time 4.0 day.
Data set [10] deals with SW1990. Description: Induction of autophagy in human SW1990 cells xenografted in BALB/c mouse assessed as decrease in p62 expression at 45 mg/kg, ip after 4 days by Western blot analysis. Type of data set: functional, organism-based. Particulars: time 4.0 day.
The subject of data set [11] is SW1990. Nature of the data set: Inhibition of homologous recombinant repair in human SW1990 cells assessed as reduction in c-Myc expression at 1 to 2 uM after 4 days by Western blot analysis. Type of data set: functional, cell-based. The following applies: dose 1-2 µM, time 4.0 day.
The subject of data set [12] is SW1990. Description: Effect on cell cycle progression in human SW1990 cells assessed as reduction in PLK1 expression at 1 to 2 uM after 4 days by Q-PCR analysis. Type of data set: functional, cell-based. Particulars: dose 1-2 µM, time 4.0 day.
In data set [13] the test system is Mus musculus. Description: In vivo inhibition of BRD4 expression in human […] cells xenografted in BALB/c mouse at 45 mg/kg, ip administered for 28 consecutive days by immunohistochemical analysis. Type of data set: functional, organism-based. Particulars: time 28.0 day.
Data set [14] has as its target T1, Bromodomain-containing protein 1 (Homo sapiens, UniProt O95696).
T1 sequence (O95696 whole entry): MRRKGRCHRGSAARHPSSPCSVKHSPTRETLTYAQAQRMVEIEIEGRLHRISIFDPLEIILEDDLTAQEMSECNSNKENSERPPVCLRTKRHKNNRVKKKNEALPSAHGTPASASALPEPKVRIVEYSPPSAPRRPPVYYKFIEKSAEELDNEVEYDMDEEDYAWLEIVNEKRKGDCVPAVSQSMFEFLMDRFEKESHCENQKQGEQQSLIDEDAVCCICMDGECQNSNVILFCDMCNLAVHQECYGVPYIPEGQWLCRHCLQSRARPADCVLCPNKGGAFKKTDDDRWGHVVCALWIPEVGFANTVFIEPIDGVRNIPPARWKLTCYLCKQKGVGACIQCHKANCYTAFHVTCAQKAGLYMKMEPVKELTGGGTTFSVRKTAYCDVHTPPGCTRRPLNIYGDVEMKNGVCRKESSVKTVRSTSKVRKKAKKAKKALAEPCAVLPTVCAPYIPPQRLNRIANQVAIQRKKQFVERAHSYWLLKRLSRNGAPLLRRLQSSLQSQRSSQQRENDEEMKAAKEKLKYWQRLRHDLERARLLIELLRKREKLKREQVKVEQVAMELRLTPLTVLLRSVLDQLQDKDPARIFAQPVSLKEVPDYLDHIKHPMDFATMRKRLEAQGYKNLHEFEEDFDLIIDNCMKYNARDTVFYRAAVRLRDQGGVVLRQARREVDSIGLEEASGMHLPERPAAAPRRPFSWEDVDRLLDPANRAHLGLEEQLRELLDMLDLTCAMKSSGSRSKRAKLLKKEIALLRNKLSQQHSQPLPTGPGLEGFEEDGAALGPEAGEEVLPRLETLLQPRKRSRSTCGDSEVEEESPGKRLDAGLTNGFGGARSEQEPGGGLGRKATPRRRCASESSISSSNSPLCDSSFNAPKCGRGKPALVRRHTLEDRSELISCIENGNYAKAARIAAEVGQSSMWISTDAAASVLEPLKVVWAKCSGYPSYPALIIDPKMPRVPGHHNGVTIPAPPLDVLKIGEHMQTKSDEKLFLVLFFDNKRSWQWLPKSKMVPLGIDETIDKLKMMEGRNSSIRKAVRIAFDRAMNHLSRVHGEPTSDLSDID
Nature of the data set: Inhibition of recombinant BRD1 (unknown origin) incubated for 120 mins by TR-FRET assay.

Data set [15] concerns SW1990. Description: Induction of autophagy in human SW1990 cells xenografted in BALB/c mouse assessed as increase in ATG5 expression at 45 mg/kg, ip after 4 days by Q-PCR analysis. Format: functional, organism-based. Particulars: time 4.0 day.
In data set [16] the test system is Mus musculus. Nature of the data set: In vivo inhibition of PARP1 expression in human […] cells xenografted in BALB/c mouse at 45 mg/kg, ip administered for 28 consecutive days by Western blot analysis. The following applies: time 28.0 day. Format: functional, organism-based.
Data set [17] has as its system SW1990. Description: Induction of cell cycle arrest in human SW1990 cells assessed as accumulation of cells at G2/M phase at 1 uM incubated for 4 days in presence of 3 uM Olaparib by propidium iodide staining based flow cytometry (reference value: 5.89%). Type of data set: functional. The following applies: time 4 day. Background: In flow cytometry, cells or beads pass a laser one at a time.

Data set [18] deals with SW1990. Description: Induction of apoptosis in human SW1990 cells assessed as late apoptotic cells at 4 uM after 4 days by Annexin V-FITC and propidium iodide staining based flow cytometry (reference value: 6.22%). The following applies: time 4 day. Type of data set: functional.
Data set [19] relates to SW1990. Nature of the data set: Inhibition of homologous recombinant repair in human SW1990 cells assessed as reduction in Olaparib-induced FOXM1 expression at 1 uM after 4 days in presence of Olaparib by Q-PCR analysis. Particulars: time 4.0 day. Format: functional, cell-based.
The subject of data set [20] is SW1990. Nature of the data set: Inhibition of homologous recombinant repair in human SW1990 cells assessed as reduction in c-Myc expression at 4 uM after 4 days by Q-PCR analysis. Format: functional, cell-based. Particulars: time 4.0 day.
Data set [21] has as its system SW1990. Description: Effect on cell cycle progression in human SW1990 cells assessed as reduction in Olaparib-induced PLK1 expression at 1 uM after 4 days in presence of Olaparib by Western blot analysis. Format: functional, cell-based. Particulars: time 4.0 day. For orientation: A western blot detects proteins with antibodies after separation by electrophoresis.

Data set [22] deals with SW1990. Description: Induction of cell cycle arrest in human SW1990 cells assessed as accumulation of cells at S phase at 1 uM incubated for 4 days in presence of 3 uM Olaparib by propidium iodide staining based flow cytometry (reference value: 29.32%). Type of data set: functional. The following applies: time 4 day.
Data set [23] has as its system SW1990. Description: Induction of cell cycle arrest in human SW1990 cells assessed as accumulation of cells at G0/G1 phase at 4 uM incubated for 4 days by propidium iodide staining based flow cytometry (reference value: 64.79%). Format: functional. The following applies: time 4 day.

For orientation: IC50 means the concentration that gives 50% inhibition.

In the case of `CC[C@@H]1C(=O)N(C)c2cnc(N(C)c3ccc(-c4nc5c(C(N)=O)cccc5[nH]4)cc3OC)nc2N1C1CCCC1`, the outcome in the data set on Mus musculus [1], with SW1990 [2], with SW1990 [4], in the data set with Mus musculus [5], in the data set with SW1990 [7] and in the data set with SW1990 [9] was Active. Further, the result in the data set with SW1990 [10], in the data set with SW1990 [12], in the data set with Mus musculus [13], with SW1990 [15] and with Mus musculus [16] was Active. Further, the inhibition entry in the data set on Mus musculus [3], with SW1990 [8] and in the data set with SW1990 [11] was “Active” each time. For the same molecule, the Activity entry in the data set on Mus musculus [6] is “Non-Toxic”. In addition, the IC50 in data set [14] amounted to 36.5 µM.

On to `Cc1sc2c(c1C)C(c1ccc(Cl)cc1)=N[C@@H](CC(=O)OC(C)(C)C)c1nnc(C)n1-2`, for which the Activity came to 9.14% in the data set on SW1990 [17], 25.5% in the data set on SW1990 [18], 19.33% in the data set on SW1990 [22] and 75.06% in the data set with SW1990 [23]. The inhibition result in the data set on SW1990 [19] and with SW1990 [20] was “Active” in each case. For the same molecule, in the data set with SW1990 [21], the result was Active.
